Measured values reported in publication PMC6155691, “Synthesis and Biological Evaluation of Novel 8-Morpholinoimidazo[1,2-a]pyrazine Derivatives Bearing Phenylpyridine/Phenylpyrimidine-Carboxamides” (Molecules : A Journal of Synthetic Chemistry and Natural …, 2017).
Like-named read-outs stand apart in the source and are kept apart here.

What was measured:
[1] = system: A549 cell line (lung cancer); assay: MTT cytotoxicity assay, A549; type: cell-based; settings: Homo sapiens, 72 h, average of two separate determinations, NA: No Activity
Experimental: (§1) The target compounds 12a–g, 13a–g and 14a–g were evaluated for their in vitro cytotoxicity against three cancer cell lines (A549, PC-3 and MCF-7) by the standard MTT assay, with compound II and GDC-0941 as positive controls. […] The results expressed as inhibition rates or IC50 values are summarized in Table 1 and Table 2, where the values are the average of at least two independent experiments.
(§2) The in vitro cytotoxic activity of all the compounds 12a–g, 13a–g and 14a–g was evaluated with the A549, PC-3 and MCF-7 cell lines by the standard MTT assay, with compounds II and GDC-0941 as positive controls. The cancer cell lines were cultured in minimum essential medium (MEM) supplement with 10% fetal bovine serum (FBS). Approximately 4 × 10^3 cells, suspended in MEM medium, were plated onto each well of a 96-well plate and incubated in 5% CO2 at 37 °C for 24 h. The test compounds at indicated final concentrations were added to the culture medium and the cell cultures were continued for 72 h. Fresh MTT was added to each well at a terminal concentration of 5 μg/mL and incubated with cells at 37 °C for 4 h. The formazan crystals were dissolved in 100 μL of DMSO in each well, and the absorbance at 492 nm (for the MTT formazan) and 630 nm (for the reference wavelength) was measured with an ELISA reader. All of the compounds were tested three times in each of the cell lines. The results expressed as inhibition rates or IC50 (half-maximal inhibitory concentration) were the averages of two determinations and calculated by using the Bacus Laboratories Incorporated Slide Scanner (Bliss) software (the Bacus Laboratories Inc. Slide Scanner (BLISS) system, Lombard, IL, USA).

[2] = system: PC-3 cell line (prostate cancer); assay: MTT cytotoxicity assay, PC-3; type: cell-based; settings: Homo sapiens, 72 h, average of two separate determinations, NA: No Activity
Experimental: as §1, §2

[3] = system: MCF-7 cell line (breast cancer); assay: MTT cytotoxicity assay, MCF-7; type: cell-based; settings: Homo sapiens, MCF7, 72 h, average of two separate determinations, NA: No Activity
Experimental: as §1, §2

[4] = target: PI3Kα kinase (Homo sapiens, UniProt P42336); assay: Kinase-Glo Luminescent Kinase Assay, PI3Kα; type: biochemical
Sequence of PI3Kα kinase (P42336 whole entry): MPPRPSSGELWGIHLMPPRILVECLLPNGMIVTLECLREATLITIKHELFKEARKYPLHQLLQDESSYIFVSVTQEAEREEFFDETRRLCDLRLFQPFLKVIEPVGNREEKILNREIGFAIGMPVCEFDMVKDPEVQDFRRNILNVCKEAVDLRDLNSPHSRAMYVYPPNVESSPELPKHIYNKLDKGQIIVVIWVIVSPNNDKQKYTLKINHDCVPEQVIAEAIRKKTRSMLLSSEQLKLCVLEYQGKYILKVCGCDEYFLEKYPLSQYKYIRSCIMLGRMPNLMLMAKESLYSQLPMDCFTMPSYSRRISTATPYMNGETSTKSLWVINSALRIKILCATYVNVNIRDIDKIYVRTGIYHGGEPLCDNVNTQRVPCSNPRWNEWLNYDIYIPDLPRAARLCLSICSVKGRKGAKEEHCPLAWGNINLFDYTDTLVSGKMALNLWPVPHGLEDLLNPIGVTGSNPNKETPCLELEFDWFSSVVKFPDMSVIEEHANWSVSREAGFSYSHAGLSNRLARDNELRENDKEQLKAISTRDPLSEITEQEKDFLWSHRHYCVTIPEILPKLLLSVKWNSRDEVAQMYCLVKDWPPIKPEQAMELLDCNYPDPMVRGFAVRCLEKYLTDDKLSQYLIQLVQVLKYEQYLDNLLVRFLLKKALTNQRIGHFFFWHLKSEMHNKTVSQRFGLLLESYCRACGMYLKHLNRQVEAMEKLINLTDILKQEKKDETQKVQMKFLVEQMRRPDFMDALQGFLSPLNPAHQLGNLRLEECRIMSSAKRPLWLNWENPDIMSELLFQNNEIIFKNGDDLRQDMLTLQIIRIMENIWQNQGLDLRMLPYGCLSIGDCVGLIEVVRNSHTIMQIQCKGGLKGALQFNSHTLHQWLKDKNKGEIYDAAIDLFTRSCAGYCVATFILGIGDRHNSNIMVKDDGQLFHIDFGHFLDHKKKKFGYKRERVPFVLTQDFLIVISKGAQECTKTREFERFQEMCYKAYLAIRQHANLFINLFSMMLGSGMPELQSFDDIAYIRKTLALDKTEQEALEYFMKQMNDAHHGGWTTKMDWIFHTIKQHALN
Sequence of PI3Kα kinase (P27986 whole entry partner): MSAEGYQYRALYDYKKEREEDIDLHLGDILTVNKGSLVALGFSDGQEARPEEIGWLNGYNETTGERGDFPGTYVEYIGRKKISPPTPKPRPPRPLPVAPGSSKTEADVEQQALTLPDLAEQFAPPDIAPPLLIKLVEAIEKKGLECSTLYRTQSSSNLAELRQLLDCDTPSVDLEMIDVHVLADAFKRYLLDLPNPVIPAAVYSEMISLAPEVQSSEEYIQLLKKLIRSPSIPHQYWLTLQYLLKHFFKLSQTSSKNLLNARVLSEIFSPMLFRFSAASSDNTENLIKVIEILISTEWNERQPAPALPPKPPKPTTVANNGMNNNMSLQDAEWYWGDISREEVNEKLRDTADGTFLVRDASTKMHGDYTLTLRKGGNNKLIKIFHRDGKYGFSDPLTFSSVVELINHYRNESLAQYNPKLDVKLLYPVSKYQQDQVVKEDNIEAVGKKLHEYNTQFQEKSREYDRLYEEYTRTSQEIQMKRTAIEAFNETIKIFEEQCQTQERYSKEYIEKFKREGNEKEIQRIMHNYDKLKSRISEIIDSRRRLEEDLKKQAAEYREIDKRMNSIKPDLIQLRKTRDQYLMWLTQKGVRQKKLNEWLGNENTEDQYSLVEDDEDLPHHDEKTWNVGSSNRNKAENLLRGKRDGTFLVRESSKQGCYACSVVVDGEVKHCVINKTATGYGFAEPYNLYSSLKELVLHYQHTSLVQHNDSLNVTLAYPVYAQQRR

[5] = system: PI3Kα; settings: cited from earlier work
[6] = system: mTOR; parameters: method as in PMID 17339109; settings: read-out: IC50 against mTOR; cited from earlier work

Row | SMILES | IC50 [1] | IC50 [2] | melting point | IC50 [3] | also measured
1 | O=C(Nc1ccc(-c2cn3ccnc3c(N3CCOCC3)n2)cc1)c1ccc(-c2ccccc2)cn1 [12a] | 58.7 ± 1.99 µM | 50.3 ± 2.04 µM | 268 to 270 °C |  | 
2 | O=C(Nc1ccc(-c2cn3ccnc3c(N3CCOCC3)n2)cc1)c1ccc(-c2cccc(F)c2)cn1 [12b, 5-(3-Fluorophenyl)-N-(4-(8-morpholinoimidazo[1,2-a]pyrazin-6-yl)phenyl)picolinamide] |  |  | 261 to 264 °C |  | 
3 | O=C(Nc1ccc(-c2cn3ccnc3c(N3CCOCC3)n2)cc1)c1ccc(-c2ccc(F)cc2F)cn1 [12c, 5-(2,4-Difluorophenyl)-N-(4-(8-morpholinoimidazo[1,2-a]pyrazin-6-yl)phenyl)picolinamide] |  |  | 255 to 257 °C |  | 
4 | O=C(Nc1ccc(-c2cn3ccnc3c(N3CCOCC3)n2)cc1)c1ccc(-c2ccc(C(F)(F)F)cc2)cn1 [12d, N-(4-(8-Morpholinoimidazo[1,2-a]pyrazin-6-yl)phenyl)-5-(4-(trifluoromethyl)phenyl)picolinamide] | 15.3 ± 0.88 µM | 69.7 ± 1.13 µM | 233 to 235 °C |  | 
5 | COc1ccc(-c2ccc(C(=O)Nc3ccc(-c4cn5ccnc5c(N5CCOCC5)n4)cc3)nc2)cc1 [12e, 5-(4-Methoxyphenyl)-N-(4-(8-morpholinoimidazo[1,2-a]pyrazin-6-yl)phenyl)picolinamide] |  |  | 255 to 257 °C |  | 
6 | Cc1cccc(-c2ccc(C(=O)Nc3ccc(-c4cn5ccnc5c(N5CCOCC5)n4)cc3)nc2)c1 [12f, N-(4-(8-Morpholinoimidazo[1,2-a]pyrazin-6-yl)phenyl)-5-(m-tolyl)picolinamide] | 19.1 ± 1.1 µM | 26.8 ± 1.47 µM | 241 to 243 °C |  | 
7 | Cc1ccc(-c2ccc(C(=O)Nc3ccc(-c4cn5ccnc5c(N5CCOCC5)n4)cc3)nc2)cc1 [12g, N-(4-(8-Morpholinoimidazo[1,2-a]pyrazin-6-yl)phenyl)-5-(p-tolyl)picolinamide] | 68.1 ± 0.89 µM | 42.3 ± 0.86 µM | 258 to 260 °C |  | 
8 | O=C(Nc1ccc(-c2cn3ccnc3c(N3CCOCC3)n2)cc1)c1cc(-c2ccccc2)ccn1 [13a, N-(4-(8-Morpholinoimidazo[1,2-a]pyrazin-6-yl)phenyl)-4-phenylpicolinamide] |  |  | 261 to 262 °C |  | 
9 | O=C(Nc1ccc(-c2cn3ccnc3c(N3CCOCC3)n2)cc1)c1cc(-c2cccc(F)c2)ccn1 [13b, 4-(3-Fluorophenyl)-N-(4-(8-morpholinoimidazo[1,2-a]pyrazin-6-yl)phenyl)picolinamide] |  |  | 237 to 239 °C |  | 
10 | O=C(Nc1ccc(-c2cn3ccnc3c(N3CCOCC3)n2)cc1)c1cc(-c2ccc(F)cc2F)ccn1 [13c, 4-(2,4-Difluorophenyl)-N-(4-(8-morpholinoimidazo[1,2-a]pyrazin-6-yl)phenyl)picolinamide] |  |  | 266 to 267 °C |  | 
11 | O=C(Nc1ccc(-c2cn3ccnc3c(N3CCOCC3)n2)cc1)c1cc(-c2ccc(C(F)(F)F)cc2)ccn1 [13d, N-(4-(8-Morpholinoimidazo[1,2-a]pyrazin-6-yl)phenyl)-4-(4-(trifluoromethyl)phenyl)picolinamide] | 42 ± 1.49 µM | 55.6 ± 1.32 µM | 269 to 272 °C | 62.5 ± 1.99 µM | 
12 | COc1ccc(-c2ccnc(C(=O)Nc3ccc(-c4cn5ccnc5c(N5CCOCC5)n4)cc3)c2)cc1 [13e, 4-(4-Methoxyphenyl)-N-(4-(8-morpholinoimidazo[1,2-a]pyrazin-6-yl)phenyl)picolinamide] | 23.9 ± 0.81 µM | 59.7 ± 2.22 µM | 257 to 260 °C | 74.9 ± 1.14 µM | 
13 | Cc1cccc(-c2ccnc(C(=O)Nc3ccc(-c4cn5ccnc5c(N5CCOCC5)n4)cc3)c2)c1 [13f, N-(4-(8-Morpholinoimidazo[1,2-a]pyrazin-6-yl)phenyl)-4-(m-tolyl)picolinamide] | 10.5 ± 0.82 µM | 65.61 ± 0.52 µM | 233 to 234 °C | 74.2 ± 1.86 µM | 
14 | Cc1ccc(-c2ccnc(C(=O)Nc3ccc(-c4cn5ccnc5c(N5CCOCC5)n4)cc3)c2)cc1 [13g, N-(4-(8-Morpholinoimidazo[1,2-a]pyrazin-6-yl)phenyl)-4-(p-tolyl)picolinamide] | 11.2 ± 1.08 µM |  | 271 to 273 °C | 7.89 ± 0.81 µM | 
15 | O=C(Nc1ccc(-c2cn3ccnc3c(N3CCOCC3)n2)cc1)c1cc(-c2ccccc2)ncn1 [14a, N-(4-(8-Morpholinoimidazo[1,2-a]pyrazin-6-yl)phenyl)-6-phenylpyrimidine-4-carboxamide] | 10.8 ± 1.62 µM |  | 272 to 275 °C |  | 
16 | Cc1ccc(-c2cc(C(=O)Nc3ccc(-c4cn5ccnc5c(N5CCOCC5)n4)cc3)ncn2)cc1 [14b, N-(4-(8-Morpholinoimidazo[1,2-a]pyrazin-6-yl)phenyl)-6-(p-tolyl)pyrimidine-4-carboxamide] | 8.88 ± 0.97 µM | 25 ± 1.19 µM | 222 to 225 °C | 6.69 ± 2.04 µM | inhibition at 10 µM ([4]; at 10 μM, Kinase-Glo, average of two separate determinations, read-out: PI3Kα 10 μM Inhibitory %): 58 ± 4.4%
17 | COc1ccc(-c2cc(C(=O)Nc3ccc(-c4cn5ccnc5c(N5CCOCC5)n4)cc3)ncn2)cc1 [14c, 6-(4-Methoxyphenyl)-N-(4-(8-morpholinoimidazo[1,2-a]pyrazin-6-yl)phenyl)pyrimidine-4-carboxamide] | 6.39 ± 1.04 µM | 12.7 ± 0.95 µM | 269 to 271 °C | 10.2 ± 1.62 µM | IC50 ([4]; Kinase-Glo, average of two separate determinations): 1.25 ± 0.13 µM; fold more active than lead compound II against PI3Kα kinase ([4]; ratio of IC50 values, 7.39 μM vs 1.25 μM): 6 fold
18 | O=C(Nc1ccc(-c2cn3ccnc3c(N3CCOCC3)n2)cc1)c1cc(-c2ccc(Br)cc2)ncn1 [14d, 6-(4-Bromophenyl)-N-(4-(8-morpholinoimidazo[1,2-a]pyrazin-6-yl)phenyl)pyrimidine-4-carboxamide] | 14.4 ± 1.01 µM | 37.1 ± 0.97 µM | 221 to 223 °C |  | 
19 | O=C(Nc1ccc(-c2cn3ccnc3c(N3CCOCC3)n2)cc1)c1cc(-c2ccc(Cl)cc2)ncn1 [14e, 6-(4-Chlorophenyl)-N-(4-(8-morpholinoimidazo[1,2-a]pyrazin-6-yl)phenyl)pyrimidine-4-carboxamide] | 17.4 ± 1.01 µM |  | 235 to 237 °C |  | 
20 | O=C(Nc1ccc(-c2cn3ccnc3c(N3CCOCC3)n2)cc1)c1cc(-c2ccc(F)cc2)ncn1 [14f, 6-(4-Fluorophenyl)-N-(4-(8-morpholinoimidazo[1,2-a]pyrazin-6-yl)phenyl)pyrimidine-4-carboxamide] | 58.2 ± 4.67 µM |  | 259 to 260 °C | 47.1 µM | 
21 | O=C(Nc1ccc(-c2cn3ccnc3c(N3CCOCC3)n2)cc1)c1cc(-c2ccc(C(F)(F)F)cc2)ncn1 [14g, N-(4-(8-Morpholinoimidazo[1,2-a]pyrazin-6-yl)phenyl)-6-(4-(trifluoromethyl)phenyl)pyrimidine-4-carboxamide] |  | 96.6 ± 2.58 µM | 278 to 281 °C |  | 
23 | CS(=O)(=O)N1CCN(Cc2cc3nc(-c4cccc5[nH]ncc45)nc(N4CCOCC4)c3s2)CC1 [GDC-0941, 2-(1H-Indazol-4-yl)-6-(4-methanesulfonyl-piperazin-1-ylmethyl)-4-morpholin-4-yl-thieno[3,2-d]pyrimidine, reference compound] | 6.99 ± 0.21 µM | 0.2 ± 0.08 µM |  | 0.07 ± 0.03 µM | 
